Measurements taken from PubChem BioAssay AID248 (DTP/NCI, 2004).
Values joined by “and” are separate entries in the source; they are usually repeats but may differ in a detail not shown here. Equal entries are not always repeated. Toxic doses and inconclusive results are not listed. Rule as the data show it: active = T/C of 150% or more; inactive = T/C below 125%.

Test system: L1210 leukemia ip in BDF1 mice, survival T/C
Assay: NCI In Vivo Anticancer Drug Screen. Data for tumor model L1210 Leukemia (intraperitoneal) in B6D2F1 (BDF1) mice
Conditions: endpoint: mean survival time, higher = longer survival
Outline: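 Each compound was tested against a transplantable tumor grown in mice. The endpoint was survival, with treated animals benchmarked against vehicle controls as a simple ratio.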

[1] = dose: 100.0 mg/kg/injection, schedule: Q01DX001 (ip), vehicle: saline
[2] = dose: 200.0 mg/kg/injection, schedule: Q01DX001 (ip), vehicle: saline
[3] = dose: 400.0 mg/kg/injection, schedule: Q01DX001 (ip), vehicle: saline
[4] = dose: 100.0 mg/kg/injection, schedule: Q04DX003 (ip), vehicle: saline with Tween-80
[5] = dose: 100.0 mg/kg/injection, schedule: Q01DX009 (ip), vehicle: saline with Tween-80
[6] = dose: 200.0 mg/kg/injection, schedule: Q01DX009 (ip), vehicle: saline with Tween-80
[7] = dose: 200.0 mg/kg/injection, schedule: Q04DX003 (ip), vehicle: saline with Tween-80
[8] = dose: 400.0 mg/kg/injection, schedule: Q04DX003 (ip), vehicle: saline with Tween-80

Measured: T/C

CCc1c(CNc2ccc(C(=O)NC(CCC(=O)O)C(=O)O)cc2)ccc2nc(N)nc(N)c12 (centres undefined)
inactive: dose: 0.12 mg/kg/injection, schedule: Q01DX003 (ip), vehicle: saline 89 % of control | dose: 4.0 mg/kg/injection, schedule: Q01DX009 (ip), vehicle: saline 88 % of control | dose: 2.5 micrograms/kg/injection, schedule: Q01DX009 (ip), vehicle: saline 101 % of control | dose: 5.0 micrograms/kg/injection, schedule: Q01DX009 (ip), vehicle: saline 111 % of control | dose: 10.0 micrograms/kg/injection, schedule: Q01DX009 (ip), vehicle: saline 113 % of control

CCC1([N+](=O)[O-])COP(=O)(OP2(=O)OCC(CC)([N+](=O)[O-])CO2)OC1 (centres undefined)
inactive: [1] 116 % of control | [2] 97 % of control | [3] 100 % of control

CCOC(=O)C1=C(C)NC(C)=C(C(=O)OCC)C1c1ccccc1[N+](=O)[O-]
inactive: dose: 6.25 mg/kg/injection, schedule: Q01DX009 (ip), vehicle: saline with Tween-80 97 % of control | dose: 12.5 mg/kg/injection, schedule: Q01DX009 (ip), vehicle: saline with Tween-80 108 % of control | dose: 25.0 mg/kg/injection, schedule: Q01DX009 (ip), vehicle: saline with Tween-80 98 % of control and 105 % of control | [4] 90 % of control

Nc1ncnc2c1ncn2C1C=COC(CO)C1O (centres undefined)
inactive: dose: 100.0 mg/kg/injection, schedule: Q01DX005 (ip), vehicle: saline 100 % of control | dose: 200.0 mg/kg/injection, schedule: Q01DX005 (ip), vehicle: saline 97 % of control

CCCCCCCC/C=C/CCCCCCCCNC(=O)NCCCl
inactive: [5] 95 % of control | [4] 87 % of control | [6] 92 % of control | [7] 87 % of control | [8] 94 % of control

NCCNC(=S)S
inactive: dose: 100.0 mg/kg/injection, schedule: Q01DX001 (ip), vehicle: Klucel (hydroxypropylcellulose) (HPC) 103 % of control | [5] 93 % of control | [4] 93 % of control | dose: 200.0 mg/kg/injection, schedule: Q01DX001 (ip), vehicle: Klucel (hydroxypropylcellulose) (HPC) 95 % of control | [6] 87 % of control | [7] 95 % of control | dose: 400.0 mg/kg/injection, schedule: Q01DX001 (ip), vehicle: Klucel (hydroxypropylcellulose) (HPC) 103 % of control | dose: 400.0 mg/kg/injection, schedule: Q01DX009 (ip), vehicle: saline with Tween-80 86 % of control | [8] 91 % of control

COc1ccc(-c2nnc(-c3ccc(OC)cc3)nn2)cc1
inactive: dose: 100.0 mg/kg/injection, schedule: Q04DX002 (ip), vehicle: Klucel (hydroxypropylcellulose) (HPC) 103 % of control | dose: 200.0 mg/kg/injection, schedule: Q04DX002 (ip), vehicle: Klucel (hydroxypropylcellulose) (HPC) 87 % of control | dose: 400.0 mg/kg/injection, schedule: Q04DX002 (ip), vehicle: Klucel (hydroxypropylcellulose) (HPC) 87 % of control

N#CC[CH2][Sn]([Br])([Br])[CH2]CC#N
inactive: dose: 12.5 mg/kg/injection, schedule: Q01DX009 (ip), vehicle: saline 103 % of control | dose: 50.0 mg/kg/injection, schedule: Q01DX009 (ip), vehicle: saline 96 % of control

Cc1cc(=S)[nH]c2ccccc12
inactive: dose: 75.0 mg/kg/injection, schedule: Q04DX003 (ip), vehicle: saline 100 % of control | dose: 150.0 mg/kg/injection, schedule: Q04DX003 (ip), vehicle: saline 100 % of control | dose: 300.0 mg/kg/injection, schedule: Q04DX003 (ip), vehicle: saline 100 % of control

CC(=O)OC1CCCCC1C (centres undefined)
inactive: [1] 102 % of control | [2] 94 % of control | [3] 91 % of control

O=C(Nc1coc2ccc(Cl)cc12)C1CC1
inactive: [5] 86 % of control | [6] 99 % of control

CCOC(=O)c1ccc(N=Nc2ccc([N+](=O)[O-])cc2)cc1
inactive: dose: 100.0 mg/kg/injection, schedule: Q04DX002 (ip), vehicle: saline with Tween-80 105 % of control | dose: 200.0 mg/kg/injection, schedule: Q04DX002 (ip), vehicle: saline with Tween-80 105 % of control | dose: 400.0 mg/kg/injection, schedule: Q04DX002 (ip), vehicle: saline with Tween-80 112 % of control
